These results are taken from patent publication US9556179B2 (BRISTOL-MYERS SQUIBB COMPANY, priority 2012, dated 2017).

The target of one assay is CK1ε (Homo sapiens (Human), UniProt P49674). Description: CK1ε kinase assay (Caliper LABCHIP electrophoretic separation of fluoresceinated peptide substrate and product). The following applies: 200 pM enzyme, 50 μM ATP, 22 hours at room temperature. In kind it is biochemical. In short, it runs like this: (§1)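 Eleven-concentration compound series in kinase reactions run for 22 hours at room temperature. Terminated with EDTA, with product conversion read by electrophoretic separation. Non-linear regression gave IC50.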
Sequence of CK1ε (P49674 whole entry): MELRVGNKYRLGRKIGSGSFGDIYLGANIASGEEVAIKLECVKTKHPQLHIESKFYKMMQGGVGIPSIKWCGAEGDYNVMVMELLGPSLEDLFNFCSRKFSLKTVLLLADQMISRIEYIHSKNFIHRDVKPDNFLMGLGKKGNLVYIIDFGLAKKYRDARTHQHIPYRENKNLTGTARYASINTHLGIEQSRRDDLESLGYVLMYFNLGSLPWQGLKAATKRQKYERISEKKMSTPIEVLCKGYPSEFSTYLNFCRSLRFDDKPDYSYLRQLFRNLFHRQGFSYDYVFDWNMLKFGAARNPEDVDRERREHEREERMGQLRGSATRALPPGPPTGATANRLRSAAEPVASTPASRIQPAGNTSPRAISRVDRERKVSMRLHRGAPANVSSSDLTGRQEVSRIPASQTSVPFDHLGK

For the next assay, the target named is CK1δ (Homo sapiens (Human), UniProt P48730). Briefly: CK1δ kinase assay (Caliper LABCHIP electrophoretic separation of fluoresceinated peptide substrate and product). The assay is classed as biochemical. Particulars: 200 pM enzyme, 50 μM ATP, 22 hours at room temperature. In short, it runs like this:
as §1

Sequence of CK1δ (P48730 whole entry): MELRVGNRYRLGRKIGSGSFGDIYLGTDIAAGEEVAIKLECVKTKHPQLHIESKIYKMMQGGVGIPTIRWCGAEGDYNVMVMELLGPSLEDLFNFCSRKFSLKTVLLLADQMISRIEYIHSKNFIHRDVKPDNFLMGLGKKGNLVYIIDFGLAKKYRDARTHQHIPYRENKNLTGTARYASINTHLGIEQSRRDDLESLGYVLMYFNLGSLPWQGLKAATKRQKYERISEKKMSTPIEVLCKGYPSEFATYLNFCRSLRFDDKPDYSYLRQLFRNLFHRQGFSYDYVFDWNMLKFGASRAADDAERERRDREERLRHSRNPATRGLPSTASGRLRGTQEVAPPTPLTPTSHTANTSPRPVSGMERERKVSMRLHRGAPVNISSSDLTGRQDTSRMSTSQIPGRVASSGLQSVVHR

On to `Cc1nnc(C(=O)Nc2cn3nc(-c4c(-c5ccc(F)cc5)nc(C)n4C)ccc3n2)o1` [Compound 367, N-(6-(4-(4-fluorophenyl)-1,2-dimethyl-1H-imidazol-5-yl)imidazo[1,2-b]pyridazin-2-yl)-5-methyl-1,3,4-oxa-diazole-2-carboxamide], for which the IC50 came out at 49.7 nM against CK1ε and 3.65 nM against CK1δ.

`Cc1cc(C(=O)Nc2cn3nc(-c4c(-c5ccc(F)cc5)nc(C)n4C)ccc3n2)nn1C` [Compound 369, N-(6-(4-(4-fluorophenyl)-1,2-dimethyl-1H-imidazol-5-yl)imidazo[1,2-b]pyridazin-2-yl)-1,5-dimethyl-1H-pyrazole-3-carboxamide]: the IC50 came out at 8.74 nM at CK1ε and 1.41 nM at CK1δ.

Turning to `Cc1nc(-c2ccc(F)cc2)c(-c2ccc3nc(NC(=O)c4cnn[nH]4)cn3n2)n1C` [Compound 370, N-(6-(4-(4-fluorophenyl)-1,2-dimethyl-1H-imidazol-5-yl)imidazo[1,2-b]pyridazin-2-yl)-1H-1,2,3-trizole-4-carboxamide], the IC50 against CK1ε was 16.2 nM; against CK1δ, 1.12 nM.

As for `Cc1nc(C(=O)Nc2cn3nc(-c4c(-c5ccc(F)cc5)nc(C)n4C)ccc3n2)co1` [Compound 371, N-(6-(4-(4-fluorophenyl)-1,2-dimethyl-1H-imidazol-5-yl)imidazo[1,2-b]pyridazin-2-yl)-2-methyl-1,3-oxazole-4-carboxamide], the IC50 came out at 19.8 nM on CK1ε and 2.5 nM against CK1δ.

With `Cc1nc(C(=O)Nc2cn3nc(-c4c(-c5ccc(F)cc5)nc(C)n4C)ccc3n2)c[nH]1` [Compound 372, N-(6-(4-(4-fluorophenyl)-1,2-dimethyl-1H-imidazol-5-yl)imidazo[1,2-b]pyridazin-2-yl)-2-methyl-1H-imidazole-4-carboxamide], the IC50 at CK1ε turned out to be 28.3 nM; on CK1δ, 2.19 nM.

On to `Cc1nc(-c2ccc(F)cc2)c(-c2ccc3nc(NC(=O)c4ncc[nH]4)cn3n2)n1C` [Compound 373, N-(6-(4-(4-fluorophenyl)-1,2-dimethyl-1H-imidazol-5-yl)imidazo[1,2-b]pyridazin-2-yl)-1H-imidazole-2-carboxamide], for which the figures for the IC50 against CK1ε and on CK1δ were 176 nM and 18.5 nM, respectively.

As to `Cc1nc(-c2ccc(F)cc2)c(-c2ccc3nc(NC(=O)c4ccc(C#N)nc4)cn3n2)n1C` [Compound 374, 6-cyano-N-(6-(4-(4-fluoro-phenyl)-1,2-dimethyl-1H-imidazol-5-yl)imidazo[1,2-b]pyridazin-2-yl)nicotinamide], the values for the IC50 against CK1ε and against CK1δ were 3.95 nM and 0.399 nM, respectively.

Turning to `Cc1nc(-c2ccc(F)cc2)c(-c2ccc3nc(NC(=O)c4ccon4)cn3n2)n1C` [Compound 375, N-(6-(4-(4-fluorophenyl)-1,2-dimethyl-1H-imidazol-5-yl)imidazo[1,2-b]pyridazin-2-yl)-3-isoxazolecarboxamide], the IC50 on CK1ε came out at 16.3 nM; against CK1δ, 1.91 nM.

Take `Cc1nc(-c2ccc(F)cc2)c(-c2ccc3nc(NC(=O)[C@@H]4CCC(=O)N4)cn3n2)n1C` [Compound 376, N-(6-(4-(4-fluorophenyl)-1,2-dimethyl-1H-imidazol-5-yl)imidazo[1,2-b]pyridazin-2-yl)-5-oxo-L-prolinamide]: the IC50 at CK1ε was 78.1 nM; on CK1δ, 8.88 nM.

On to `Cc1n[nH]cc1C(=O)Nc1cn2nc(-c3c(-c4ccc(F)cc4)nc(C)n3C)ccc2n1` [Compound 377, N-(6-(4-(4-fluorophenyl)-1,2-dimethyl-1H-imidazol-5-yl)imidazo[1,2-b]pyridazin-2-yl)-3-methyl-1H-pyrazole-4-carboxamide], for which the IC50 on CK1ε was determined as 4.04 nM; on CK1δ it was 0.656 nM.

As for `Cc1nc(-c2ccc(F)cc2)c(-c2ccc3nc(NC(=O)c4cnoc4)cn3n2)n1C` [Compound 378, N-(6-(4-(4-fluorophenyl)-1,2-dimethyl-1H-imidazol-5-yl)imidazo[1,2-b]pyridazin-2-yl)-4-isoxazolecarboxamide], the IC50 against CK1ε turned out to be 60 nM; at CK1δ, 6.19 nM.

As for `Cc1cc(C(=O)Nc2cn3nc(-c4c(-c5ccc(F)cc5)nc(C)n4C)ccc3n2)on1` [Compound 379, N-(6-(4-(4-fluorophenyl)-1,2-dimethyl-1H-imidazol-5-yl)imidazo[1,2-b]pyridazin-2-yl)-3-methyl-5-isoxazole-carboxamide], the IC50 against CK1ε turned out to be 4.94 nM; against CK1δ, 0.569 nM.

For `Cc1nc(-c2ccc(F)cc2)c(-c2ccc3nc(NC(=O)c4cnc[nH]4)cn3n2)n1C` [Compound 380, N-(6-(4-(4-fluorophenyl)-1,2-dimethyl-1H-imidazol-5-yl)imidazo[1,2-b]pyridazin-2-yl)-1H-imidazole-5-carboxamide], the figures for the IC50 against CK1ε and on CK1δ were 36.1 nM and 5.23 nM, respectively.

`Cc1c(C(=O)Nc2cn3nc(-c4c(-c5ccc(F)cc5)nc(C)n4C)ccc3n2)cnn1C` [Compound 381, N-(6-(4-(4-fluorophenyl)-1,2-dimethyl-1H-imidazol-5-yl)imidazo[1,2-b]pyridazin-2-yl)-1,5-dimethyl-1H-pyrazole-4-carboxamide]: the IC50 stood at 3.74 nM on CK1ε and 0.754 nM against CK1δ.

For the compound `Cc1cc(C(=O)Nc2cn3nc(-c4c(-c5ccc(F)cc5)nc(C)n4C)ccc3n2)on1` [Compound 382, N-(6-(4-(4-fluorophenyl)-1,2-dimethyl-1H-imidazol-5-yl)imidazo[1,2-b]pyridazin-2-yl)-3-methyl-5-isoxazole-carboxamide], the results for the IC50 against CK1ε and against CK1δ were 103 nM and 21.9 nM, respectively.

In the case of `Cc1nc(-c2ccc(F)cc2)c(-c2ccc3nc(NC(=O)c4ncccn4)cn3n2)n1C` [Compound 383, N-(6-(4-(4-fluorophenyl)-1,2-dimethyl-1H-imidazol-5-yl)imidazo[1,2-b]pyridazin-2-yl)pyrimidine-2-carboxamide], the IC50 worked out at 17.3 nM on CK1ε and 6.34 nM against CK1δ.

Turning to `Cc1nc(-c2ccc(F)cc2)c(-c2ccc3nc(NC(=O)c4ccncn4)cn3n2)n1C` [Compound 384, N-(6-(4-(4-fluorophenyl)-1,2-dimethyl-1H-imidazol-5-yl)imidazo[1,2-b]pyridazin-2-yl)pyrimidine-4-carboxamide], the IC50 against CK1ε is 29.1 nM; against CK1δ it was 8.51 nM.

As to `Cc1nc(-c2ccc(F)cc2)c(-c2ccc3nc(NC(=O)c4cccnn4)cn3n2)n1C` [Compound 386, N-(6-(4-(4-fluorophenyl)-1,2-dimethyl-1H-imidazol-5-yl)imidazo[1,2-b]pyridazin-2-yl)pyridazine-3-carboxamide], the IC50 was found to be 55.1 nM against CK1ε and 10.5 nM at CK1δ.

Take `Cc1nc(-c2ccc(F)cc2)c(-c2ccc3nc(NC(=O)c4cnccn4)cn3n2)n1C` [Compound 388, N-(6-(4-(4-fluorophenyl)-1,2-dimethyl-1H-imidazol-5-yl)imidazo[1,2-b]pyridazin-2-yl)pyrazine-2-carboxamide]: the half-inhibitory concentration (IC50) against CK1ε is 19.4 nM; against CK1δ, 7.12 nM.

Consider `Cc1nc(-c2ccc(F)cc2)c(-c2ccc3nc(NC(=O)c4cc(-c5ccc(F)cc5)ncn4)cn3n2)n1C` [Compound 389], for which the IC50 was 270 nM at CK1ε and 35.2 nM on CK1δ.

Turning to `Cc1nc(-c2ccc(F)cc2)c(-c2ccc3nc(NC(=O)c4cnc(-c5ccncc5)s4)cn3n2)n1C` [Compound 390, N-(6-(4-(4-fluorophenyl)-1,2-dimethyl-1H-imidazol-5-yl)imidazo[1,2-b]pyridazin-2-yl)-2-(pyridin-4-yl)thiazole-5-carboxamide], the IC50 was determined as 32.6 nM at CK1ε and 7.2 nM on CK1δ.

For `Cc1nc(-c2ccc(F)cc2)c(-c2ccc3nc(NC(=O)c4ccnnc4)cn3n2)n1C` [Compound 391, N-(6-(4-(4-fluorophenyl)-1,2-dimethyl-1H-imidazol-5-yl)imidazo[1,2-b]pyridazin-2-yl)pyridazine-4-carboxamide], the IC50 was determined as 10.5 nM against CK1ε and 4.45 nM against CK1δ.

`Cc1nc(-c2ccc(F)cc2)c(-c2ccc3nc(NC(=O)c4ccccc4CN(C)C)cn3n2)n1C` [Compound 392, 2-((dimthylamino)methyl)-N-(6-(4-(4-fluorophenyl)-1,2-dimethyl-1H-imidazol-5-yl)imidazo[1,2-b]pyridazin-2-yl)benzamide]: the IC50 against CK1ε is 54.5 nM; on CK1δ it was 16.7 nM.

`Cc1nc(-c2ccc(F)cc2)c(-c2ccc3nc(NC(=O)c4cccc(CN5CCCC5)c4)cn3n2)n1C` [Compound 394, N-(6-(4-(4-fluorophenyl)-1,2-dimethyl-1H-imidazol-5-yl)imidazo[1,2-b]pyridazin-2-yl)-3-(pyrrolidin-1-ylmethyl) benzamide]: the IC50 against CK1ε worked out at 15.3 nM; at CK1δ, 6.81 nM.

For `Cc1nc(-c2ccc(F)cc2)c(-c2ccc3nc(NC(=O)c4ccc(CN5CCCC5)cc4)cn3n2)n1C` [Compound 395, N-(6-(4-(4-fluorophenyl)-1,2-dimethyl-1H-imidazol-5-yl)imidazo[1,2-b]pyridazin-2-yl)-4-(pyrrolidin-1-ylmethyl) benzamide], the IC50 against CK1ε is 10.6 nM; against CK1δ, 5.46 nM.

On to `Cc1nc(-c2ccc(F)cc2)c(-c2ccc3nc(NC(=O)c4cncs4)cn3n2)n1C` [Compound 396, N-(6-(4-(4-fluorophenyl)-1,2-dimethyl-1H-imidazol-5-yl)imidazo[1,2-b]pyridazin-2-yl)thiazole-5-carboxamide], for which the half-maximal inhibitory concentration (IC50) against CK1ε turned out to be 4.41 nM; at CK1δ, 3.88 nM.

Take `Cc1nc(-c2ccc(F)cc2)c(-c2ccc3nc(NC(=O)c4ccncc4F)cn3n2)n1C` [Compound 397, 3-fluoro-N-(6-(4-(4-fluoro-phenyl)-1,2-dimethyl-1H-imidazol-5-yl)imidazo[1,2-b]pyridazin-2-yl)isonicotin-amide]: the IC50 at CK1ε amounted to 6.65 nM; against CK1δ, 2.74 nM.

As for `Cc1nc(-c2ccc(F)cc2)c(-c2ccc3nc(NC(=O)c4ccc(Cl)cc4F)cn3n2)n1C` [Compound 398, 4-chloro-2-fluoro-N-(6-(4-(4-fluorophenyl)-1,2-dimethyl-1H-imidazol-5-yl)imidazo[1,2-b]pyridazin-2-yl) benzamide], the IC50 against CK1ε turned out to be 2.7 nM; against CK1δ, 0.66 nM.

One may read the IC50 as the midpoint of a concentration-inhibition curve. High values mean lower potency, low ones higher potency.
